In PMC4022547 (Molecular Brain, 2014):

Experiments:
[1] = biological target: hα6(D199Y) + hβ4 + hβ3 nAChR (Homo sapiens, UniProt P30926+Q15825, D199Y); assay: Oocyte two-electrode voltage clamp; assay type: cell-based
Description: (§1) We planned to introduce identical amounts of cRNA, presumably producing equal amounts of each subunit protein, into oocytes largely due to lack of information about the levels of mRNA for each subunits that compose α6*-nAChRs in neurons or other cells. Concentrations of cRNAs for each nAChR α and β subunits (WT, mutant or variant) were adjusted to 500 ng μL^−1. We provisionally assumed that hα6 or its variants in association with hβ2 or hβ4 subunits would form complexes having 2:3 and/or 3:2 ratios of the indicated subunits and that oocytes also injected with WT or mutant form of β3 subunits (i.e., β3^V9’S) would express nAChR with 2:2:1 ratios of α:β:(β3 or β3^V9’S) subunits. For expression of binary nAChRs (i.e., two subunit containing nAChRs; α + β but not β3) cRNA mixtures were prepared by mixing 1 μL of cRNA for each subunit and an additional μL of RNAse free water (i.e., total volume 3 μL). Similarly for expression of ternary nAChRs [i.e., three subunit containing nAChRs; (α + β) + (β3 or β3^V9’S)] cRNA mixtures were prepared by mixing 1 μL of cRNA for each subunit. Several preparations of each mixture were prepared and stored at −80°C until further use. Injection of 138 nL of cRNA, out of 3 μL cRNA mixtures, into each oocyte would deliver ~23 ng of cRNA for each subunit whether binary or ternary nAChRs are expressed.
(§2) Two to 5 days after injection, oocytes were placed in a small-volume chamber and continuously perfused with OR2. The chamber was grounded through an agarose bridge. The oocytes were voltage-clamped at −70 mV (unless otherwise noted) to measure agonist or antagonist induced currents using Axoclamp 900A and pClamp 10.2 software (Molecular Devices, Sunnyvale, CA). The current signal was low-pass filtered at 10 Hz with the built-in low-pass Bessel filter in the Axoclamp 900A and digitized at 20 Hz with Axon Digidata1440A and pClamp10. […] Drugs (agonists and antagonists) were prepared daily in OR2. Drug was applied using a Valvelink 8.2 perfusion system (Automate scientific, Berkeley, CA). […] Then for the purpose of comparison electrophysiological recordings were performed in a given day in a given batch of oocytes following the same order of injections. […] All hβ4*-nAChR recordings were done in similar conditions to facilitate comparisons between hα6hβ4- and hα6hβ4hβ3-nAChRs. All electrophysiological measurements were conducted or checked in at least two batches of oocytes.
(§3) Raw data was collected and processed in part using pClamp 10.2 (Molecular Devices, Sunnyvale, CA), Origin 7.5 (OriginLab Corporation, Northampton, MA) and a spreadsheet (Excel; Microsoft, Bellevue, WA). Peak current amplitudes (Imax) are reported as mean ± SEM (for results from at least three oocytes, i.e., n = 3).

[2] = biological target: T1, hα6(R87C) + WT hβ2 + hβ3^V9’S nAChR (Homo sapiens, UniProt P17787+Q15825, R87C); assay: Oocyte two-electrode voltage clamp; assay type: cell-based; settings: ACh, nicotine or atropine; hβ2 type not specified
T1 construct: Full length capped mRNA (i.e., cRNA) was transcribed from linearized plasmids; expressed in transfected cells; host or cells: Xenopus laevis oocytes injected with cRNA
T1 sequence (Q15825 26-494 R87C): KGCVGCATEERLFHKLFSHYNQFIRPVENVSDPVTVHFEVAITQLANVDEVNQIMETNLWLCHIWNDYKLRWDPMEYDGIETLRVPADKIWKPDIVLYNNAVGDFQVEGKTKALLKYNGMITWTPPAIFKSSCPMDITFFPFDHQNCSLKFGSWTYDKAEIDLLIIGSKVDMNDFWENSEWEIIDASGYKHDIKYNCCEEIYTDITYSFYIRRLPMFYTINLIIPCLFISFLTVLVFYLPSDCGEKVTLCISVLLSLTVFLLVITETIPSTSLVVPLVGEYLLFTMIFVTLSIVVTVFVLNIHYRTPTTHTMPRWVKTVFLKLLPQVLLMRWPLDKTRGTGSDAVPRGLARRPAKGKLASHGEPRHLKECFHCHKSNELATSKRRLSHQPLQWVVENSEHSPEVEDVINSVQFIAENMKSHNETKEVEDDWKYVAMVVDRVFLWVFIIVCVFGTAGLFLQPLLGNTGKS
T1 sequence (P17787 26-502): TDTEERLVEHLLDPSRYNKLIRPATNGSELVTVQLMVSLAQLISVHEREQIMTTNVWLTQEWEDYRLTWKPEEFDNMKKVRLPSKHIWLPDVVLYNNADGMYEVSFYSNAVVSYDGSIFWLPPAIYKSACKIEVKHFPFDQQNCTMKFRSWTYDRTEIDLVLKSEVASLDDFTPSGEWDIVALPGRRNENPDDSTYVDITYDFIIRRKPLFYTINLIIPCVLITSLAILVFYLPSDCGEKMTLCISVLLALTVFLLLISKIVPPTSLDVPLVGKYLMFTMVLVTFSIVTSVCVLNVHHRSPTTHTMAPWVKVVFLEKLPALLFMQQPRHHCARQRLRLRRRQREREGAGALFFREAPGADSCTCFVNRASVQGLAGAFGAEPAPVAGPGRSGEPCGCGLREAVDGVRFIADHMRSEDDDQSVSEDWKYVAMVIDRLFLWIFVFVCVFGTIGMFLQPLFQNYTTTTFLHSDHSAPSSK
T1 sequence (Q05901 25-458 V273S partner limits assumed): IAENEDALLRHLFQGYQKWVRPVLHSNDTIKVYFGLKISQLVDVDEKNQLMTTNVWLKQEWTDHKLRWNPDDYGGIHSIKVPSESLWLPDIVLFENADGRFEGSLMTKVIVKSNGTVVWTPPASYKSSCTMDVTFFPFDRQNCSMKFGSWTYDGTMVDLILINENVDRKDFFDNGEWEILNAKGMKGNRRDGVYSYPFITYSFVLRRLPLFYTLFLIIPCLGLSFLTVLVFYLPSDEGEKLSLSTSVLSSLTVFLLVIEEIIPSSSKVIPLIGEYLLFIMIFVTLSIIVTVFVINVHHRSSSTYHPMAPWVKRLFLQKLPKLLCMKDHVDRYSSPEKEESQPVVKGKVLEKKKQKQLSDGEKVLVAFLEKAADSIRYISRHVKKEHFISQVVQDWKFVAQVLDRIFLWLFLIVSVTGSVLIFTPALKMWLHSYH
Description: as §1, §2, §3

hα6(R96H) + hβ4 nAChR = biological target: T2, hα6(R96H) + hβ4 nAChR (Homo sapiens, UniProt P30926+Q15825, R96H); assay: Oocyte two-electrode voltage clamp; assay type: cell-based; settings: 1000 μM ACh; 1 μM atropine co-applied
T2 construct: Full length capped mRNA (i.e., cRNA) was transcribed from linearized plasmids; expressed in transfected cells; host or cells: Xenopus laevis oocytes injected with cRNA
T2 sequence (Q15825 26-494 R96H): as the sequence (Q15825 26-494 R87C) above, with C62R, R71H counted along it
T2 sequence (P30926 22-498, stated change not applied): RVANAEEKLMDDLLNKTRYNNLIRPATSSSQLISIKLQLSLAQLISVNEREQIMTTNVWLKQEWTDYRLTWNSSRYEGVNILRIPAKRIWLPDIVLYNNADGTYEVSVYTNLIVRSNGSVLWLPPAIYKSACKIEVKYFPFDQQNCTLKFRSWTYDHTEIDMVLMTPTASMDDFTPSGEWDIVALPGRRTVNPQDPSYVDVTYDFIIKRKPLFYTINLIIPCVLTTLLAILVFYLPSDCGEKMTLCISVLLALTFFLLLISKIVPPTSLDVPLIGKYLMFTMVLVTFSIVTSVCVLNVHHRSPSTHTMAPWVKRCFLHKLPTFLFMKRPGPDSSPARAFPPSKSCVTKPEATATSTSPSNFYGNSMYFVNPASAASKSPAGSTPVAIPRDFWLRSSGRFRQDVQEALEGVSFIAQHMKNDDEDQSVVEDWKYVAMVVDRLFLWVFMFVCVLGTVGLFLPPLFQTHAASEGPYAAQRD
Description: as §1, §2, §3

[3] = biological target: hα6^D57Nhβ4hβ3^V9’S-nAChR (Homo sapiens, UniProt P30926+Q15825, D57N); settings: nicotine (100 μM), ACh (100 μM) or atropine (1000 μM)
Sequence of hα6^D57Nhβ4hβ3^V9’S-nAChR (Q15825 26-494 D57N): as the sequence (Q15825 26-494 R87C) above, with D32N, C62R counted along it
Sequence of hα6^D57Nhβ4hβ3^V9’S-nAChR (P30926 22-498): as the sequence (P30926 22-498, stated change not applied) above
Sequence of hα6^D57Nhβ4hβ3^V9’S-nAChR (Q05901 25-458 V273S partner limits assumed): as the sequence (Q05901 25-458 V273S partner limits assumed) above
Description: as §1, §2

[4] = biological target: hα6^N171Khβ4β3^V9’S-nAChR (Homo sapiens, UniProt P30926+Q15825, N171K); settings: nicotine (100 μM), ACh (100 μM) or atropine (1000 μM)
Sequence of hα6^N171Khβ4β3^V9’S-nAChR (Q15825 26-494 N171K): as the sequence (Q15825 26-494 R87C) above, with C62R, N146K counted along it
Sequence of hα6^N171Khβ4β3^V9’S-nAChR (P30926 22-498): as the sequence (P30926 22-498, stated change not applied) above
Sequence of hα6^N171Khβ4β3^V9’S-nAChR (Q05901 25-458 V273S partner limits assumed): as the sequence (Q05901 25-458 V273S partner limits assumed) above
Description: as §1, §2

[5] = biological target: hα6^R87C + hβ4 + hβ3^V9’S nAChR (Homo sapiens, UniProt P30926+Q15825, R87C); settings: nicotine (100 μM), ACh (100 μM) or atropine (1000 μM)
Sequence of hα6^R87C + hβ4 + hβ3^V9’S nAChR (Q15825 26-494 R87C): as the sequence (Q15825 26-494 R87C) above
Sequence of hα6^R87C + hβ4 + hβ3^V9’S nAChR (P30926 22-498): as the sequence (P30926 22-498, stated change not applied) above
Sequence of hα6^R87C + hβ4 + hβ3^V9’S nAChR (Q05901 25-458 V273S partner limits assumed): as the sequence (Q05901 25-458 V273S partner limits assumed) above
Description: as §1, §2

[6] = biological target: hα6^S156Rhβ4hβ3^V9’S-nAChR (Homo sapiens, UniProt P30926+Q15825, S156R); settings: nicotine (100 μM), ACh (100 μM) or atropine (1000 μM)
Sequence of hα6^S156Rhβ4hβ3^V9’S-nAChR (Q15825 26-494 S156R): as the sequence (Q15825 26-494 R87C) above, with C62R, S131R counted along it
Sequence of hα6^S156Rhβ4hβ3^V9’S-nAChR (P30926 22-498): as the sequence (P30926 22-498, stated change not applied) above
Sequence of hα6^S156Rhβ4hβ3^V9’S-nAChR (Q05901 25-458 V273S partner limits assumed): as the sequence (Q05901 25-458 V273S partner limits assumed) above
Description: as §1, §2

hα6hβ4hβ3^V9’S-nAChR = hα6hβ4hβ3^V9’S-nAChR (Homo sapiens, UniProt P30926+Q05901+Q15825, V273S); settings: nicotine (100 μM), ACh (100 μM) or atropine (1000 μM); spontaneously opening channels
Sequence of hα6hβ4hβ3^V9’S-nAChR (Q15825 26-494): as the sequence (Q15825 26-494 R87C) above, with C62R counted along it
Sequence of hα6hβ4hβ3^V9’S-nAChR (P30926 22-498): as the sequence (P30926 22-498, stated change not applied) above
Sequence of hα6hβ4hβ3^V9’S-nAChR (Q05901 22-458 V273S): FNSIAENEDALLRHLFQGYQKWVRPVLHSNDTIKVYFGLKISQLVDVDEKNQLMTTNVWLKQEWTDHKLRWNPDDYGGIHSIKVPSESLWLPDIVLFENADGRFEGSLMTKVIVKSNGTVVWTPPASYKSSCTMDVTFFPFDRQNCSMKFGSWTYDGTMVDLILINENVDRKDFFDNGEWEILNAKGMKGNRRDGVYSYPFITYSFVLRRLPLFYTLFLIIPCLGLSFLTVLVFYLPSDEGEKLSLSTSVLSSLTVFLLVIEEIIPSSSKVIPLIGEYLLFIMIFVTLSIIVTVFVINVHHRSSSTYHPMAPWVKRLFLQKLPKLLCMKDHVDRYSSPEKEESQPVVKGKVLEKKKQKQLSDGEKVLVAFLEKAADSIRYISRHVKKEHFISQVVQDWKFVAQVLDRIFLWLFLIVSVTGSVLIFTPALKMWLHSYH
Description: as §1, §2

Sequence of hα6(D199Y) + hβ4 + hβ3 nAChR (Q15825 26-494 D199Y): as the sequence (Q15825 26-494 R87C) above, with C62R, D174Y counted along it
Sequence of hα6(D199Y) + hβ4 + hβ3 nAChR (P30926 22-498): as the sequence (P30926 22-498, stated change not applied) above
Sequence of hα6(D199Y) + hβ4 + hβ3 nAChR (Q05901 25-458 partner limits assumed): as the sequence (Q05901 25-458 V273S partner limits assumed) above, with S249V counted along it

Compound: CC(=O)OCC[N+](C)(C)C [ACh, acetylcholine]
- nH ± SE (Hill coefficient) [1]: 1.1 ± 0.07
- Mean Imax ± SE (nA) ([1]; 1000 μM ACh, 1 μM atropine co-applied): 494 ± 51 nA
- current response [2]: not obtained
- Mean Imax ± SE (nA) (hα6(R96H) + hβ4 nAChR): 31 ± 4 nA
- current response (direction) [3]: outward reversible currents
- current response (direction) [4]: outward reversible currents
- current response [5]: not obtained
- current response (direction) [6]: outward reversible currents
- current response (direction) (hα6hβ4hβ3^V9’S-nAChR): robust inward current
